Literature values in patent US10773008B2, “Medicated patch for preventing exit site infections during peritoneal dialysis” (Universiti Brunei Darussalam, priority 2016, dated 2020).

Assays:
[1] = topical mupirocin
[2] = in vivo
[3] = not given; remark: listed apart in the source

C/C(=C\C(=O)OCCCCCCCCC(=O)O)C[C@@H]1OC[C@H](C[C@@H]2O[C@H]2[C@@H](C)[C@H](C)O)[C@@H](O)[C@H]1O [mupirocin]
bioavailability [1]: 0.24%
half-life [2]: 20 to 40 min
log P: 2.45
PKa [3]: 4.83
